Marks after values point to notes of the source that are not given here.
System: patients with hyposmia
Assay: Olfactometry (DT, RT, ME, H; forced-choice, three-stimuli, stepwise-staircase, four odors), open trial of oral theophylline
Type: in vivo, human
From the text: Patients initially reported their sensory dysfunction as either loss of taste (e.g., flavor) and/or smell function. This subjective response was documented by objective psychophysical measurements of olfactory function administered to each patient by use of a forced-choice, three-stimuli, stepwise-staircase technique in a fixed, controlled design (1, 53). Efficacy of this technique and results of testing were previously documented in a double-blind clinical trial (53). Four odors were used; they were pyridine (dead-fish odor), nitrobenzene (bitter-almond odor), thiophene (petroleum-like odor) and amyl acetate (banana-oil odor). Detection thresholds (DT), recognition thresholds (RT) and magnitude estimation (ME) values for each odor were determined as previously described (1, 53). Thresholds were converted into bottle units (BU) as previously described (53) and results reported as M±SEM of correct responses for each odor in each treatment group; ME was reported in % and results calculated to obtain M±SEM for each treatment group for all correct responses using data for the four highest odor concentrations presented (from 10^−2M—an absolute odor concentration).
In addition, each patient graded the hedonic (H) value of each odor presented for these same odor concentrations (from 10^−2M—an absolute odor concentration using a −100-0-+100 scale). […] Results were obtained by calculating the arithmetical sum of each correct recognition response for each odor with respect to its pleasantness, unpleasantness or neutrality. Arithmetic M±SEM were obtained for each treatment group for each odor presented.
After determination of hyposmia, patients were treated in an open label, fixed design, controlled open trial. Patients were given an oral extended release theophylline in divided daily doses taken in the middle of breakfast and lunch. All patients were initially given 200 mg of theophylline; changes in this dose were made based upon subjective responses to therapy. If at a subsequent return visit, patients reported ≥5% subjective improvement in overall smell function, they continued on this same dose of theophylline and were reevaluated after four to six months of continued treatment. Results from any subsequent return from these improved patients were not included in any subsequent data report. All subsequent comparisons between treated and untreated patients were made only between those patients continuing in the study compared to their own measurements obtained in the untreated state. If patients reported <5% subjective improvement, their theophylline dose was increased by 200 mg daily and they were scheduled for retesting at the study site after two to four months at this new dosage. For patients that reported <5% improvement, this sequence continued until patients reached 800 mg of theophylline, at which time the study was considered completed.
Patients returned for reevaluation after two to four months of treatment. Measurements of blood serum theophylline were measured by a fluorescence polarization assay (Abbott, Chicago, Ill.). At this time, subjective changes in smell function were measured independently (compared to patient's memory of previous normal smell function monitored by use of the patients' daily measurements) using the scale from −100-0-+100 previously described (vs). After independently recording their subjective responses, smell function was measured for all four odors with DT, RT, ME and H determined without recourse to prior measurements.
Since data for all measurements from each patient group (local or distant) on each dose level were combined mean and SEM for each measurement (DT, RT, ME, H) of smell function for each treatment group were calculated on this basis. Differences in measurements between before treatment and each treatment level were calculated and significance of differences estimated using Student t tests (values p<0.05 considered significant). […]

[1] = Type I hyposmia, oral 200 mg, after treatment (57 patients), mean ± SEM
[2] = Type I hyposmia, oral 400 mg, after treatment (33 patients), mean ± SEM
[3] = Type I hyposmia, oral 600 mg, after treatment (51 patients), mean ± SEM
[4] = Type I hyposmia, oral 800 mg, after treatment (12 patients), mean ± SEM
[5] = Type II hyposmia, oral 200 mg, after treatment (138 patients)
[6] = Type II hyposmia, oral 400 mg, after treatment (85 patients)
[7] = Type II hyposmia, oral 600 mg, after treatment (105 patients)

Compound: Cn1c(=O)c2[nH]cnc2n(C)c1=O [theophylline]
- detection threshold (DT), pyridine [1]: 9.5 ± 0.2 BU
- hedonic value (H), amyl acetate [1]: 4 ± 2^a %
- hedonic value (H), nitrobenzene [1]: 4 ± 2^a %
- hedonic value (H), pyridine [1]: −8 ± 2^a %
- hedonic value (H), thiophene [1]: −3 ± 2^a %
- magnitude estimation (ME), amyl acetate [1]: 6 ± 2^a %
- magnitude estimation (ME), nitrobenzene [1]: 5 ± 2^a %
- magnitude estimation (ME), pyridine [1]: 11 ± 2^a %
- magnitude estimation (ME), thiophene [1]: 6 ± 2^a %
- recognition threshold (RT), pyridine [1]: 11.0 ± 0.2^a BU
- detection threshold (DT), nitrobenzene [2]: 9.8 ± 0.5^a BU
- detection threshold (DT), pyridine [2]: 8.8 ± 0.5 BU
- detection threshold (DT), thiophene [2]: 9.8 ± 0.5^a BU
- hedonic value (H), amyl acetate [2]: 5 ± 3^a %
- hedonic value (H), nitrobenzene [2]: 3 ± 3^a %
- hedonic value (H), pyridine [2]: −7 ± 3^a %
- hedonic value (H), thiophene [2]: −5 ± 2^a %
- magnitude estimation (ME), amyl acetate [2]: 7 ± 3^a %
- magnitude estimation (ME), nitrobenzene [2]: 8 ± 3^a %
- magnitude estimation (ME), pyridine [2]: 12 ± 3^a %
- magnitude estimation (ME), thiophene [2]: 7 ± 2^a %
- recognition threshold (RT), pyridine [2]: 10.6 ± 0.4 BU
- detection threshold (DT), nitrobenzene [3]: 9.9 ± 0.4^c BU
- detection threshold (DT), pyridine [3]: 8.9 ± 0.3^b BU
- detection threshold (DT), thiophene [3]: 9.4 ± 0.4^a BU
- hedonic value (H), amyl acetate [3]: −0.4 ± 1%
- hedonic value (H), nitrobenzene [3]: 2 ± 2%
- hedonic value (H), pyridine [3]: −8 ± 2^a %
- hedonic value (H), thiophene [3]: −3 ± 2^a %
- magnitude estimation (ME), amyl acetate [3]: 5 ± 2^a %
- magnitude estimation (ME), nitrobenzene [3]: 6 ± 2^a %
- magnitude estimation (ME), pyridine [3]: 11 ± 3^a %
- magnitude estimation (ME), thiophene [3]: 7 ± 2^a %
- detection threshold (DT), thiophene [4]: 10.0 ± 0.7 BU
- hedonic value (H), amyl acetate [4]: −1 ± 4%
- hedonic value (H), nitrobenzene [4]: 2 ± 2^a %
- hedonic value (H), pyridine [4]: −11 ± 5^a %
- hedonic value (H), thiophene [4]: −4 ± 2^a %
- magnitude estimation (ME), amyl acetate [4]: 5 ± 3^a %
- magnitude estimation (ME), nitrobenzene [4]: 4 ± 3^a %
- magnitude estimation (ME), pyridine [4]: 10 ± 4^a %
- magnitude estimation (ME), thiophene [4]: 4 ± 2^a %
- detection threshold (DT), amyl acetate [5]: 7.0 ± 0.3 BU
- detection threshold (DT), nitrobenzene [5]: 6.9 ± 0.3^a BU
- detection threshold (DT), pyridine [5]: 6.9 ± 0.2 BU
- detection threshold (DT), thiophene [5]: 6.5 ± 0.3 BU
- hedonic value (H), amyl acetate [5]: 3 ± 2%
- hedonic value (H), nitrobenzene [5]: 7 ± 2%
- hedonic value (H), pyridine [5]: −28 ± 2%
- hedonic value (H), thiophene [5]: −19 ± 2%
- magnitude estimation (ME), amyl acetate [5]: 19 ± 2%
- magnitude estimation (ME), nitrobenzene [5]: 22 ± 2%
- magnitude estimation (ME), pyridine [5]: 35 ± 2%
- magnitude estimation (ME), thiophene [5]: 27 ± 2%
- recognition threshold (RT), amyl acetate [5]: 9.3 ± 0.2 BU
- recognition threshold (RT), nitrobenzene [5]: 8.8 ± 0.3 BU
- recognition threshold (RT), pyridine [5]: 8.2 ± 0.2^a BU
- recognition threshold (RT), thiophene [5]: 8.2 ± 0.3^a BU
- detection threshold (DT), amyl acetate [6]: 6.1 ± 0.4^a BU
- detection threshold (DT), nitrobenzene [6]: 6.3 ± 0.4^a BU
- detection threshold (DT), pyridine [6]: 6.3 ± 0.3^a BU
- detection threshold (DT), thiophene [6]: 5.7 ± 0.4 BU
- hedonic value (H), amyl acetate [6]: 0.3 ± 2.8%
- hedonic value (H), nitrobenzene [6]: 11 ± 3%
- hedonic value (H), pyridine [6]: −34 ± 3%
- hedonic value (H), thiophene [6]: −23 ± 3%
- magnitude estimation (ME), amyl acetate [6]: 21 ± 3%
- magnitude estimation (ME), nitrobenzene [6]: 27 ± 3^a %
- magnitude estimation (ME), pyridine [6]: 41 ± 3^a %
- magnitude estimation (ME), thiophene [6]: 31 ± 3%
- recognition threshold (RT), amyl acetate [6]: 8.8 ± 0.4^a BU
- recognition threshold (RT), nitrobenzene [6]: 8.2 ± 0.4^a BU
- recognition threshold (RT), pyridine [6]: 7.7 ± 0.3^a BU
- recognition threshold (RT), thiophene [6]: 7.6 ± 0.4^a BU
- detection threshold (DT), amyl acetate [7]: 6.8 ± 0.3^a BU
- detection threshold (DT), nitrobenzene [7]: 6.8 ± 0.3^a BU
- detection threshold (DT), pyridine [7]: 6.7 ± 0.3^a BU
- detection threshold (DT), thiophene [7]: 6.1 ± 0.3^a BU
- hedonic value (H), amyl acetate [7]: 7 ± 2%
- hedonic value (H), nitrobenzene [7]: 11 ± 2%
- hedonic value (H), pyridine [7]: −25 ± 3%
- hedonic value (H), thiophene [7]: −20 ± 2%
- magnitude estimation (ME), amyl acetate [7]: 19 ± 2%
- magnitude estimation (ME), nitrobenzene [7]: 24 ± 2%
- magnitude estimation (ME), pyridine [7]: 33 ± 2%
- magnitude estimation (ME), thiophene [7]: 27 ± 2%
- recognition threshold (RT), amyl acetate [7]: 8.9 ± 0.3^a BU
- recognition threshold (RT), nitrobenzene [7]: 8.4 ± 0.3 BU
- recognition threshold (RT), pyridine [7]: 8.9 ± 0.3 BU
